These results are taken from US20170101431A1, “NUCLEOSIDE DERIVATIVES FOR THE TREATMENT OF CANCER” (IDENIX PHARMACEUTICALS LLC, priority 2014, published 2017).

This assay deals with AML samples (live leukemic cells from bone marrow or peripheral blood of patients). Nature of the assay: Ex-vivo effect on AML patient samples (depletion of live leukemic cells, flow cytometry, Annexin V). The assay is classed as cell-based, human. As for the experimental part:
Patient samples were obtained from a non-interventional and prospective study. The study included samples from adult patients over 18 years of age who were diagnosed with Acute Myeloid Leukemia (AML).
In one embodiment, the method of data acquisition was performed as follows: on day 1 bone marrow (BM) or peripheral blood (PB) patient sample was received. A small part was separated from the rest of the sample for validation, while the majority of the sample was diluted with culture media and plated into 96-well plates previously prepared with the desired compounds and compound combinations, e.g., a compound or compound combination described herein. The number of live leukemic cells seeded in each well was fixed between 8000 and 32000, depending on the percentage of leukemic cells for each sample. […] Antibodies were added to identify leukemic cells using a gating strategy based on FSC/SSC and expression or lack of expression of different surface markers. The monoclonal antibodies selection was performed to optimize the identification of leukemic cell in each sample.
In one embodiment, non-limiting examples of biomarkers such as the biomarkers CD34, CD45, CD117, and HLADR known as “backbone markers” for AML (van Dongen, J. J. and A. Orfao, EuroFlow: Resetting leukemia and lymphoma immunophenotyping. Basis for companion diagnostics and personalized medicine, Leukemia, 2012, 26, 1899-907) were included in the combination.
In one embodiment, antibody combinations such as CD117/CD45, CD34/CD45, and HLADR/CD45 were used. Live leukemic cells were identified by their light scatter properties (FSC^int/hi/SSC^int) in the absence of Annexin-V-FITC staining. FSC/SSC selection was performed to exclude debris. The average percentage of cell viability upon receipt of the sample was 80% and samples were only processed if the viability was greater than 50%.
In one embodiment, sample validation was performed as follows: BM and PB samples were extracted under sterile conditions and received in the laboratory within 24 hours of extraction. Initial analysis evaluated the number of pathological cells and their viability. Different volumes of sample (1 μL, 3 μL, 5 μL and 7 μL) were aliquoted in duplicate into a 96-well plate. To lyse red blood cells, 180 μL of ammonium chloride lysis solution was added to each well (2 g KHCO3, 16.58 g NH4Cl, 0.074 g Na2EDTA2.H2O, H2O to […]). Following a 10 min incubation period at 4° C., plate was centrifuged for 5 min at 1200 rpm and the supernatant removed. The lysis step was performed twice. To analyze, 20 μL of a combination of Annexin V-FITC (Immunostep, Salamanca, Spain), binding buffer (BB, 2.4 g HEPES, 8.19 g NaCl, 0.37 g Cl2Ca, H2O to […]), and the following monoclonal antibodies (mAb) were added to each well: CD117 (clone 104D2)-PE (Becton Dickinson, San Jose, Calif., US), CD34 (clone 581)-PerCP (BioLegend, San Diego, Calif., US), HLADR (clone L243)-PB (BioLegend) and CD45 (HI30)-PO (Life Technologies, Carlsbad, Calif., US) (van Dongen, J. J., et al., EuroFlow antibody panels for standardized n-dimensional flow cytometric immunophenotyping of normal, reactive and malignant leukocytes, Leukemia, 2012, 26, 1908-75). After 15 min of incubation at room temperature in the dark, a wash step was performed using binding buffer solution. The pellet was resuspended in 30 μL BB for analysis in Vivia's ExviTech© platform. Cell count and viability upon arrival were computed and the optimal volume of sample to use per well was determined.
In one embodiment, the assay was performed according to following method: the whole sample was diluted with RPMI 1640, supplemented with 20% (v/v) FBS (Thermo Scientific, Waltham, Mass., US), 2% HEPES, 1% antibiotic (Zell Shield, Labclinics, Barcelona, Spain) and 1% L-glutamine 200 mM (Lonza, Hopkinton, Mass., US) to a final volume of 60 μL per well. […]
Background: Flow cytometry measures light scatter and fluorescence of single cells or particles in a stream.

The mark [1] stands for this setting: Homo sapiens, 72 h, plates incubated for 72 hours.
Setting [2] is: Homo sapiens, 72 h, plates incubated for 72 hours, read-out: Emax.
[3] abbreviates: Homo sapiens, 48 h, plates incubated for 48 hours.
The mark [4] stands for this setting: Homo sapiens, 48 h, plates incubated for 48 hours, read-out: Emax.

Molecules are shown by their SMILES. Where two headings read alike, the source gives them in different places.

Take `Nc1nc(Cl)nc2c1ncn2[C@@H]1O[C@H](COP(=O)(O)NCc2ccccc2)C(O)C1F` (stereo partly shown): the EC50 – broadly, the concentration that produces a half-maximal response – under setting [1] is at most 1 µM. For the same compound, the Emax (in general, the maximal effect, on the per cent scale that the assay sets) under setting [2] was 0 to 10%.
The matching figures for `COC(=O)[C@H](CC(C)C)NP(=O)(N[C@@H](CC(C)C)C(=O)OC)OC[C@H]1O[C@@H](n2cnc3c(N)nc(Cl)nc32)C(F)C1O` (stereo partly shown): 1 to 10 µM and over 20%.
As to `Nc1ccn([C@@H]2O[C@H](COP(=O)(O)NCc3ccccc3)C(O)C2O)c(=O)n1` (stereo partly shown), the half-maximal effective concentration (EC50) under setting [1] lay within 10 to 20 µM. The Emax under setting [2] was 0 to 10%.
On to `CCCCCCCC/C=C/CCCCCCCC(=O)Nc1ccn([C@@H]2O[C@H](COP(=O)(N[C@@H](CC(C)C)C(=O)OC)N[C@@H](CC(C)C)C(=O)OC)C(O)C2O)c(=O)n1` (stereo partly shown), for which, under setting [1], the EC50 was in the range of 10 to 20 µM. Besides, the Emax under setting [2] is over 20%.
In the case of `CC(C)(CO)C(=O)SCCOP(=O)(NCc1ccccc1)OC[C@H]1O[C@@H](n2ccc(N)nc2=O)C(O)C1O` (stereo partly shown), the EC50 under setting [1] lay within 10 to 20 µM. Moreover, under setting [2], the Emax lay in the range of 0 to 10%.
Take `CC(C)(O)C(=O)SCCOP(=O)(OCCSC(=O)C(C)(C)CO)OC[C@H]1O[C@@H](N2C=NC3C(N)=NC(Cl)=NC32)[C@@H](F)[C@@H]1O` (stereo partly shown): the EC50 under setting [1] lay within 1 to 10 µM. The Emax under setting [2] lay within 10 to 20%.
As to `CC(C)OC(=O)[C@H](C)NP(=O)(OC[C@H]1O[C@@H](n2cnc3c(N)nc(F)nc32)[C@@H](O)[C@@H]1O)Oc1ccccc1` (stereo partly shown), where the note is “Homo sapiens, plates incubated for 48 hours”, the EC50 was at least 20 µM. Also, the Emax (Homo sapiens, plates incubated for 48 hours, read-out: Emax) is 0 to 10%.
As to `Nc1nc(F)nc2c1ncn2[C@@H]1O[C@H](COP(=O)(O)NCc2ccccc2)[C@@H](O)[C@@H]1O`, under setting [3], the EC50 lay in the range of 1 to 10 µM. Moreover, the Emax under setting [4] lay in the range of 0 to 10%.
Take `CCOC(=O)[C@H](CC(C)C)NP(=O)(O)OC[C@H]1O[C@@H](N2C=NC3C(N)=NC(F)=NC32)[C@@H](O)[C@@H]1O` (stereo partly shown): the EC50 under setting [3] is 10 to 20 µM. The maximal response (Emax) under setting [4] was over 20%.
In the case of `COC(=O)[C@H](CC(C)C)NP(=O)(N[C@@H](CC(C)C)C(=O)OC)OC[C@H]1O[C@@H](N2C=NC3C(N)=NC(F)=NC32)[C@@H](O)[C@@H]1O` (stereo partly shown), under setting [3], the concentration giving a half-maximal response (EC50) was at least 20 µM. Moreover, the Emax under setting [4] was in the range of 10 to 20%.
In the case of `COC(=O)COP(=O)(NC(CC(C)C)C(=O)OC)OC[C@H]1O[C@@H](n2cnc3c(N)nc(F)nc32)[C@@H](O)[C@@H]1O` (stereo partly shown), the EC50 under setting [3] is 1 to 10 µM. Also, the Emax under setting [4] lay within 0 to 10%.
Turning to `CCOC(=O)C(C)NP1(=O)OCC2O[C@@H](n3cnc4c(N)nc(Cl)nc43)[C@@H](F)[C@@H]2O1` (single isomer, unassigned) [drawing 653], where the note is “plates incubated for 72 hours”, the EC50 is at most 1 µM and the Emax result is “A (A=0-10%)”.
As to `CCOC(=O)C(C)NP1(=O)OCC2O[C@@H](n3cnc4c(N)nc(Cl)nc43)[C@@H](F)[C@@H]2O1` (single isomer, unassigned) [drawing 654], under “plates incubated for 72 hours”, the half-maximal effective concentration (EC50) was in the range of 10 to 20 µM and the Emax result is on record as “B (B=10-20%)”.
`CC(C)(CO)C(=O)SCCOP(=O)(NCc1ccccc1)OC[C@H]1O[C@@H](n2cnc3c(N)nc(Cl)nc32)C(F)C1O` (single isomer, unassigned) [drawing 657]: the EC50 under setting [1] is at most 1 µM. Moreover, under setting [2], the Emax was in the range of 10 to 20%.
Regarding `CC(C)(CO)C(=O)SCCOP(=O)(NCc1ccccc1)OC[C@H]1O[C@@H](n2cnc3c(N)nc(Cl)nc32)C(F)C1O` (single isomer, unassigned) [drawing 658], under “plates incubated for 72 hours”, the EC50 was in the range of 1 to 10 µM and the Emax entry is reported as “B (B=10-20%)”.
With `COC(=O)COP(=O)(N[C@@H](CC(C)C)C(=O)OC)OC[C@H]1O[C@@H](n2cnc3c(N)nc(Cl)nc32)C(F)C1O` (single isomer, unassigned) [drawing 659], under setting [1], the EC50 lay within 1 to 10 µM. Further, the maximum response (Emax) under setting [2] is over 20%.
Regarding `COC(=O)COP(=O)(N[C@@H](CC(C)C)C(=O)OC)OC[C@H]1O[C@@H](n2cnc3c(N)nc(Cl)nc32)C(F)C1O` (single isomer, unassigned) [drawing 660], under “plates incubated for 72 hours”, the EC50 lay within 1 to 10 µM and the Emax result is listed as “B (B=10-20%)”.
The matching figures for `COC(=O)COP(=O)(N[C@@H](CC(C)C)C(=O)OC)OC[C@H]1O[C@@H](n2ccc(N)nc2=O)C(O)C1O` (single isomer, unassigned) [drawing 662]: 1 to 10 µM and “B (B=10-20%)”.
Consider `COC(=O)COP(=O)(N[C@@H](CC(C)C)C(=O)OC)OC[C@H]1O[C@@H](n2ccc(N)nc2=O)C(O)C1O` (single isomer, unassigned) [drawing 663], for which, where the note is “plates incubated for 72 hours”, the 50% effective concentration (EC50) was in the range of 10 to 20 µM and the Emax entry is “A (A=0-10%)”.
Consider `CCOC(=O)[C@H](CC(C)C)NP(=O)(OCC(=O)OC)OC[C@H]1O[C@@H](n2ccc(N)nc2=O)C(O)C1O` (single isomer, unassigned) [drawing 664], for which, under setting [1], the EC50 is 1 to 10 µM. Also, the Emax under setting [2] was 0 to 10%.
Turning to `CCOC(=O)[C@H](CC(C)C)NP(=O)(OCC(=O)OC)OC[C@H]1O[C@@H](n2ccc(N)nc2=O)C(O)C1O` (single isomer, unassigned) [drawing 665], the EC50 (plates incubated for 72 hours) is 1 to 10 µM.
For the compound `Cn1c(COP(=O)(NCc2ccccc2)OC[C@H]2O[C@@H](n3ccc(N)nc3=O)C(O)C2O)cnc1[N+](=O)[O-]` (single isomer, unassigned) [drawing 666], the 50% effective concentration (EC50) under setting [1] is 1 to 10 µM. For the same compound, the Emax under setting [2] was in the range of 0 to 10%.
For the compound `Cn1c(COP(=O)(NCc2ccccc2)OC[C@H]2O[C@@H](n3ccc(N)nc3=O)C(O)C2O)cnc1[N+](=O)[O-]` (single isomer, unassigned) [drawing 667], the EC50 (plates incubated for 72 hours) was in the range of 1 to 10 µM.
Consider `CCOC(=O)[C@H](CC(C)C)NP1(=O)OC[C@H]2O[C@@H](n3cnc4c(N)nc(F)nc43)[C@@H](O)[C@@H]2O1` (single isomer, unassigned) [drawing 672], for which, under setting [3], the EC50 lay within 10 to 20 µM. The maximum response (Emax) result (plates incubated for 48 hours) is “C (C>20%)”.
Turning to `CCOC(=O)[C@H](CC(C)C)NP1(=O)OC[C@H]2O[C@@H](n3cnc4c(N)nc(F)nc43)[C@@H](O)[C@@H]2O1` (single isomer, unassigned) [drawing 673], where the note is “plates incubated for 48 hours”, the EC50 is at least 20 µM and the maximal response (Emax) result is recorded as “A (A=0-10%)”.
Regarding `CC(C)OP1(=O)OC[C@H]2O[C@@H](N3C=NC4C(N)=NC(F)=NC43)[C@@H](O)[C@@H]2O1` (single isomer, unassigned) [drawing 675], the 50% effective concentration (EC50) under setting [3] is 10 to 20 µM. For the same compound, under setting [4], the Emax was over 20%.
Consider `CC(C)OP1(=O)OC[C@H]2O[C@@H](N3C=NC4C(N)=NC(F)=NC43)[C@@H](O)[C@@H]2O1` (single isomer, unassigned) [drawing 676], for which, for the setting “plates incubated for 48 hours”, the EC50 is at least 20 µM and the Emax result is “C (C>20%)”.
With `CCOC(=O)[C@H](C)NP1(=O)OC[C@H]2O[C@@H](n3cnc4c(N)nc(F)nc43)[C@@H](O)[C@@H]2O1` (single isomer, unassigned) [drawing 680], the EC50 under setting [3] fell in the range of 10 to 20 µM. Also, the Emax under setting [4] is over 20%.
As for `CCOC(=O)[C@H](C)NP1(=O)OC[C@H]2O[C@@H](n3cnc4c(N)nc(F)nc43)[C@@H](O)[C@@H]2O1` (single isomer, unassigned) [drawing 681], for the setting “plates incubated for 48 hours”, the EC50 lay in the range of 10 to 20 µM.
